ChEMBL document CHEMBL1132029, “Specific, uncompetitive inhibition of beta-galactosidases by a 5,6-isopropylidenedioxyfuro[2,3-d]isoxazole-3-methanol derivative” (Bioorg Med Chem Lett, 1999)
pIC50, pKi: −log10 of the molar value. Calls of active or inactive are those of the source. No cut-off for these calls is given here.

Assays:
[1] = target: Beta-glucosidase A (Caldicellulosiruptor saccharolyticus) (UniProt P10482); assay: Inhibitory activity against beta-glucosidase from Caldocellum saccharolyticum at a concentration of 1 mM; No activity
Target sequence in this assay (P10482 whole entry): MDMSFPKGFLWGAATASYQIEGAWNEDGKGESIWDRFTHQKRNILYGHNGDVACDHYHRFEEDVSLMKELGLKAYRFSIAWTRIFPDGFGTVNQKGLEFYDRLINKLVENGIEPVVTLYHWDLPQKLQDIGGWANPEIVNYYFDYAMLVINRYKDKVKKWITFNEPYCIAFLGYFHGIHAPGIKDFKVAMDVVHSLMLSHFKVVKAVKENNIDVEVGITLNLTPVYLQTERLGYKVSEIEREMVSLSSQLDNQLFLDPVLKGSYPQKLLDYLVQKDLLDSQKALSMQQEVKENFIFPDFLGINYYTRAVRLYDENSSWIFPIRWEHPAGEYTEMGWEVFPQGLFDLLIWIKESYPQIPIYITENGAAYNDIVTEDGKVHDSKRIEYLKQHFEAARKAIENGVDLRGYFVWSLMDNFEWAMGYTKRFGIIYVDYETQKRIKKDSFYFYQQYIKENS

[2] = Inhibitory activity against beta-galactosidase from jack beans at a concentration of 1 mM; No activity; settings: Canavalia ensiformis
[3] = Inhibitory activity against beta-galactosidase from Aspergillus oryzae at a concentration of 1 mM; No activity
[4] = target: T1, Beta-galactosidase (Aspergillus niger) (UniProt P29853); assay: Inhibitory activity against beta-galactosidase from Aspergillus niger at a concentration of 1 mM; No activity
T1 sequence (whole entry): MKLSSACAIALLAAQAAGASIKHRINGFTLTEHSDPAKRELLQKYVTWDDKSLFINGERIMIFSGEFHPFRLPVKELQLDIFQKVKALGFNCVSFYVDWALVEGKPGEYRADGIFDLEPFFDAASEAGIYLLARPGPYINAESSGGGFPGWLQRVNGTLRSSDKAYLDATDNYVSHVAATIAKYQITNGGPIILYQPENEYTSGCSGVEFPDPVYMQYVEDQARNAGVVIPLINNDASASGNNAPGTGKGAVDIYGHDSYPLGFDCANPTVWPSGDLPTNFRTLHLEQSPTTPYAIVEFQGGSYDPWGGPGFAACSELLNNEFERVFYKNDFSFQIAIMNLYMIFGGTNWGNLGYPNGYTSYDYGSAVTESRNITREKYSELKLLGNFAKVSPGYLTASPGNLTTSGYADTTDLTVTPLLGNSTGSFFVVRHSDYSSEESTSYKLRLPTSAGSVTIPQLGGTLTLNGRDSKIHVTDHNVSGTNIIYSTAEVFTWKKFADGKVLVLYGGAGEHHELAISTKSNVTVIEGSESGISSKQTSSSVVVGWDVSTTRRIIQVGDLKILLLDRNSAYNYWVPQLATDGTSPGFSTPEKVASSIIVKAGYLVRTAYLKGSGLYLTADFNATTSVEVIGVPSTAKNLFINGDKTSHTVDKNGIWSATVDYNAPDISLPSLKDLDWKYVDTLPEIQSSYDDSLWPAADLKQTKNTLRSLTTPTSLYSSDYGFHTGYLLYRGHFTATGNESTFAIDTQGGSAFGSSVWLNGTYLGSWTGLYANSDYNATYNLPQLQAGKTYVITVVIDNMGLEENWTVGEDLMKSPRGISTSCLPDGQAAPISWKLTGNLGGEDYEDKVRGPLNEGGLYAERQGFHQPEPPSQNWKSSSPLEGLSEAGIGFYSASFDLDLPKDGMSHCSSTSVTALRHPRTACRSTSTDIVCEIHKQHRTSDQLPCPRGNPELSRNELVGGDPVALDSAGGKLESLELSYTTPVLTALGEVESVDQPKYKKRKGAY

[5] = target: Beta-glucosidase A (Caldicellulosiruptor saccharolyticus) (UniProt P10482); assay: Inhibitory activity against beta-glucosidase from Caldocellum saccharolyticum at a concentration of 1 mM; No activity
Target sequence in this assay (P10482 whole entry, looked up): as the sequence (P10482 whole entry) above

[6] = target: T1, Beta-galactosidase (Aspergillus niger); settings: 1 mM
[7] = target: Beta-glucosidase A (Caldicellulosiruptor saccharolyticus, UniProt P10482); assay: Inhibition of beta-glucosidase from Caldocellum saccharolyticum
[8] = target: Beta-glucosidase A (Caldicellulosiruptor saccharolyticus) (UniProt P10482); settings: 1 mM
Target sequence in this assay (P10482 whole entry): as the sequence (P10482 whole entry) above

[9] = target: T2, Beta-galactosidase (Aspergillus niger, UniProt P29853); assay: Inhibition of beta-galactosidase from Aspergillus niger
T2 sequence (P29853 whole entry): T1 sequence (whole entry)

[10] = Inhibitory activity against rice Alpha-galactosidase at concentration 1 mM
[11] = Inhibitory activity against beta-galactosidase from jack beans […]; No activity; settings: Canavalia ensiformis

Chain of Beta-glucosidase A (P10482 whole entry): as the sequence (P10482 whole entry) above

Structure (SMILES)	Activity [1]	Activity [2]	Activity [3]	Activity [4]	Activity [5]	other results
COCOCC1=NO[C@H]2[C@@H]3OC(C)(C)O[C@@H]3O[C@@H]12	inactive	inactive	inactive	inactive	–	–
CC1(C)O[C@@H]2O[C@H]3C(CO)=NO[C@H]3[C@@H]2O1	–	–	–	–	–	inhibition [6]: 14%; pIC50 [7]: 3.26; pKi [7]: 5.30; inhibition [8]: 67%; pIC50 [9]: 4.37; pKi [9]: 4.74
CC1(C)O[C@H]2O[C@@H]3C(C4N[C@@H](c5ccccc5)[C@H](c5ccccc5)N4)=NO[C@@H]3[C@H]2O1	–	inactive	inactive	inactive	inactive	–
OCC1=NO[C@H]2[C@H](O)C(O)O[C@@H]12 (stereo not given in full)	inactive	inactive	inactive	inactive	–	inhibition [10]: 59%
CC1(C)O[C@@H]2O[C@H]3C(C4N[C@@H](c5ccccc5)[C@H](c5ccccc5)N4)=NO[C@H]3[C@@H]2O1	–	–	inactive	inactive	inactive	Activity [11]: inactive

Now from value to molecule, other results behind:

Activity [1]	Activity [2]	Activity [3]	Activity [4]	Activity [5]	Structure (SMILES)	other results
inactive	inactive	inactive	inactive	–	COCC1=NO[C@H]2[C@@H]3OC(C)(C)O[C@@H]3O[C@@H]12	–
–	inactive	inactive	inactive	inactive	CC1(C)O[C@@H]2O[C@H]3C(C=O)=NO[C@H]3[C@@H]2O1	–
–	inactive	inactive	inactive	inactive	CCOC(OCC)C1=NO[C@H]2[C@H](O)C(O)O[C@@H]12 (stereo not given in full)	–
